Measured values from ChEMBL document CHEMBL5614434, “A Lysosome-Targeting hNEU1 Inhibitor Treats Myocardial Infarction: A Potential Therapeutic Breakthrough” (J Med Chem, 2024).

Test: Drug uptake in lysosomes of rat H9c2 cells assessed as time required for compound concentration in lysosomes to exceed the cell lysates by HPLC analysis
Format: ADME, subcellular, Lysosome

Time: 7.15 min
Compound: CCC(CC)O[C@@H]1C=C(C(=O)O)C[C@H](N)[C@H]1NC(C)=O [OSELTAMIVIR CARBOXYLATE]
